Test results reported in patent US20250213585A1, “COMPOSITIONS AND METHODS OF A CONCOMITANT THERAPY OF ALTERNATING ELECTRIC FIELDS AND NOTCH-1 INHIBITOR” (NOVOCURE GMBH, priority 2023, published 2025).
“Also recorded” adds a separate entry of the source.

Tests used:
[1] = system: cells; assay: Combination of Notch1 inhibitor with an alternating electric field (FIGS. 4, 8); assay type: cell-based
[2] = system: Notch1 protein; assay: TTFields-mediated degradation of Notch1 protein with degradation pathway inhibitors (FIG. 11E); assay type: cell-based; conditions: TTFields treatment
Excerpt: Reduction of Notch1 level by TTFields was also confirmed by immunofluorescence staining (FIGS. 11C and D). The intracellular protein degradation mechanism primarily involves proteasomal and lysosomal degradation pathways. To further elucidate the mechanism of TTFields-mediated degradation of Notch1 protein, lysosomal inhibitor Leupeptin and proteasomal inhibitor MG132 were employed (FIG. 11E). […] Lysosomal degradation of proteins, particularly those located on cell membrane such as Notch1, often involves cell membrane.
Protein levels were evaluated through Western Blot analysis, following the established protocol. The antibodies employed in the study are listed below. Rabbit notch1 (Abcam, ab52627), Rabbit Cleaved Notch1 (CST, 4147S), Mouse anti-GAPDH (Abclonal, A19056), Rabbit anti-Tubulin (Abclonal, AC015), Rabbit anti-Hes1 (ab108937), rabbit anti-Hes5 (Abclonal A16237), rabbit anti-Hey1 (Abclonal A16110), rabbit anti-Myc (Selleck, A5011), anti-rabbit CD133 (Abcam, ab19898), anti-mouse Sox2 (Abcam, ab79351), anti-Rabbit Nestin (Abcam), and Anti-mouse lamp1.

[3] = system: U87; assay: Cell viability of glioblastoma cell line U87 (FIGS. 6, 7); assay type: cell-based
Protocol: (§1) For short-term experiments, such as detecting the degradation process of glioblastoma cells under TTFields, U87, U251, LN229, and T98 cell suspensions (450 μL, 100,000 cells per well) were evenly spread on 24 mm cell culture slides. After overnight incubation, the cells were transferred to in vitro dishes and supplemented with 2 mL fresh culture medium. The treatment frequency was 200 kHz, with a treatment field strength of 1.62 V/cm RMS, for a duration of 24 hours. For long-term combination experiments, involving the combined use of RO4929097 or Notch1 gene knockdown with TTFields, cells (450 μL, 40,000 cells per well) were treated with a field strength of 1.19 V/cm RMS and a frequency of 200 kHz for 72 hours. The concentration of RO4929097 drug was varied. For organoid experiments, 3-5 GBOs were added to each well, and fresh GBO medium was replaced. The treatment field strength was 1.19 V/cm RMS, with a frequency of 200 kHz, for treatment durations of 24 and 48 hours.

[4] = system: U251; assay: Cell viability of glioblastoma cell line U251 (FIGS. 6, 7); assay type: cell-based
Protocol: as §1

[5] = system: glioma cell lines including U87, U251, and LN229; assay: Validation assays with TTFields in glioma cell lines (EdU incorporation, cell counting; FIGS. 10A-C); assay type: cell-based
Protocol: It was first analyzed whether Notch1 antagonization sensitized glioma cell lines to TTFields treatment. Validation assays were conducted across multiple glioma cell lines including U87, U251, and LN229. The Notch1 inhibitor RO4929097 was used to probe whether it synergizes with TTFields. […] In the validation assays, experimental cohorts were divided into four groups: control (DMSO), TTFields treatment alone, Notch1 inhibitor RO4929097, and TTFields plus RO4929097.
as §1

[6] = system: glioma cells; assay: Clonogenic (colony formation) assay after treatment (FIGS. 5, 10D); assay type: cell-based
Protocol: as §1, with “48 hours. Following treatment with TTFields and corresponding conditions, 500-1000 cells were selected from each group and seeded in 6-well dishes. The cells were cultured at 37 degrees Celsius with 5% CO2 for a period of 7-10 days, with medium replacement every 3 days. […]” for “48 hours.”

[7] = system: glioma cells; assay: Sensitization of glioma cells to temozolomide (FIGS. 7, 10E); assay type: cell-based; conditions: Notch1 inhibitor in combination with temozolomide
[8] = system: patient-derived glioblastoma organoids (GBOs); assay: EdU staining of patient-derived glioblastoma organoids with TTFields (FIG. 13I); assay type: cell-based
Protocol: as §1

[9] = system: glioblastoma; conditions: cited from earlier work
[10] = 5 μM Notch1 inhibitor alone, FIG. 6
[11] = 5 μM Notch1 inhibitor alone, FIG. 7
[12] = 20 μM Notch1 inhibitor alone, FIG. 6
[13] = 20 μM Notch1 inhibitor alone, FIG. 7
[14] = 250 μM Temozolomide and 5 μM Notch1 inhibitor concomitant, FIG. 7
[15] = 250 μM Temozolomide and 20 μM Notch1 inhibitor concomitant, FIG. 7
[16] = TTFields and 5 μM Notch1 inhibitor concomitant, FIG. 6
[17] = TTFields and 20 μM Notch1 inhibitor concomitant, FIG. 6
[18] = phase I and II clinical trials for glioblastoma

C[C@H](NC(=O)Cc1cc(F)cc(F)c1)C(=O)N[C@H](C(=O)OC(C)(C)C)c1ccccc1 [DAPT]
therapeutic efficacy of the alternating electric field ([1]; DAPT combined with an alternating electric field, FIG. 8): enhances the therapeutic efficacy

CC(=O)N[C@@H](CC(C)C)C(=O)N[C@@H](CC(C)C)C(=O)N[C@H](C=O)CCCNC(=N)N [Leupeptin]
effect on TTFields-induced degradation of Notch1 protein [2]: blocked

Cn1nnc2c(C(N)=O)ncn2c1=O [Temozolomide]
viability at 250 µM ([3]; Homo sapiens, U-87 MG, 250 μM Temozolomide alone, FIG. 7): 75% | viability at 250 µM ([4]; Homo sapiens, U-251, 250 μM Temozolomide alone, FIG. 7): 75%

CC(C)(C(=O)NCC(F)(F)C(F)(F)F)C(=O)N[C@@H]1C(=O)Nc2ccccc2-c2ccccc21 [RO4929097]
cell viability [3, 10]: 80% | cell viability [3, 11]: no change in viability | cell viability [3, 12]: around 60% | cell viability [3, 13]: around 80% | cell viability [3, 14]: no change in viability | cell viability [3, 15]: no change in viability | cell viability [3, 16]: 20% | cell viability [3, 17]: 20% | cell viability [4, 10]: no change in viability | cell viability [4, 11]: no change in viability | cell viability [4, 12]: around 60% | cell viability [4, 13]: around 80% | cell viability [4, 14]: no change in viability | cell viability [4, 15]: no change in viability | cell viability [4, 16]: 20% | cell viability [4, 17]: 20% | cytotoxicity in EdU incorporation assays ([5]; RO4929097 alone, FIGS. 10A and B): minimal cytotoxicity | therapeutic sensitization in EdU incorporation assays ([5]; RO4929097 combined with TTFields, FIGS. 10A and B): noticeable enhancement in therapeutic sensitization | growth suppression by TTFields ([5]; combined with TTFields, FIG. 10 legend): enhances growth suppression | colonogenic abilities following re-seeding after treatment ([6]; Notch1 inhibitor alone, FIG. 5): no significant impact | clonogenic ability / long-term proliferative potential ([6]; Notch1 inhibitor combined with TTFields / alternating electric field, re-seeding after treatment): synergy; also recorded: sensitization effect | sensitization to / killing by temozolomide (TMZ) [7]: did not sensitize | sensitization to / killing by temozolomide (TMZ) ([7]; listed as Notch1 inhibitor): no effect | sensitization to / killing by temozolomide (TMZ) ([7]; listed as RO): does not enhance killing | cytotoxicity by Edu staining in GBOs ([8]; Notch1 inhibitor alone): no apparent cytotoxicity | effect with TTFields by Edu staining in GBOs ([8]; combined with TTFields): clear synergistic effect | sensitization of alternating electric field therapy ([1]; RO4929097 combined with an alternating electric field, low-intensity, long duration, FIGS. 4 and 5): sensitizes alternating electric field therapy | safety profile ([9]; glioblastoma / recurrent GB patients): favorable safety profile | blood-brain barrier penetration [9, 18]: favorable blood-brain barrier penetration | expression of Notch1 downstream genes in tumor cells [9, 18]: reduce expression of Notch1 downstream genes
